The text below walks through data of patent US12011444B2, “N-substituted indole derivatives as PGE2 receptor modulators” (Idorsia Pharmaceuticals Ltd, priority 2015, dated 2024).

One assay concerns the target EP4 (Homo sapiens (Human), UniProt P35408). In words: hEP4 cAMP assay (BT549 breast cancer cells, HTRF cAMP). The assay is classed as cell-based. To be noted: antagonistic activity; mean values where measured multiple times. As for the experimental part: Plate is pre-incubated 45 minutes at room temperature. Subsequently, 2.5 microliters of PGE2 (final conc. 6 nM) are transferred into the assay plate. Plate is incubated 30 minutes at room temperature.
In general terms: Cyclic AMP is a second messenger, typically raised through Gs and lowered through Gi signalling.

In the next assay the target is EP2 (Homo sapiens (Human), UniProt P43116).
EP2, sequence (P43116 whole entry): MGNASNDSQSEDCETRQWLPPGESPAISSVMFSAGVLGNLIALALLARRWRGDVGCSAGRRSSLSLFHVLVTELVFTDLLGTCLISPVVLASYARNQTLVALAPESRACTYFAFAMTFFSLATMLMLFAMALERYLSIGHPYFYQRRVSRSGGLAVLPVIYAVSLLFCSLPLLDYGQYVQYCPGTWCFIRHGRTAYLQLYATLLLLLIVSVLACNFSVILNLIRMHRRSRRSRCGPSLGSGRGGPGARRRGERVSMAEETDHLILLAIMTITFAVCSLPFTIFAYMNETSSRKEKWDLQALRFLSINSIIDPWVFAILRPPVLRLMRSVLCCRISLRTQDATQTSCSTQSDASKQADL
The target of a further assay is PTGER2 (EP2) (Homo sapiens (Human), UniProt P43116). In words: hEP2 b-arrestin assay (PathHunter HEK 293 PTGER2 b-arrestin cells). It counts as cell-based. To be noted: antagonistic activity on hEP2; mean where measured multiple times. Summed up:
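Readout is β-galactosidase complementation luminescence, expressed as percent of DMSO control (duplicates). PathHunter HEK293 EP2/β-arrestin 2 cells, grown 24 h, received compound for 15 min at 37 °C before a 120 min challenge with PGE2 at 5 μM final, followed by 1 h detection at room temperature.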

A further assay addresses PTRGER4 (EP4) (Homo sapiens (Human), UniProt P35408). In words: hEP4 b-arrestin assay (PathHunter HEK 293 PTGER4 b-arrestin cells). The assay is classed as cell-based. To be noted: antagonistic activity on hEP4; mean where measured multiple times. In a few lines: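 Antagonist mode: compound is given 15 min at 37 °C, then 20 nM (final) PGE2 for 120 min, in HEK293 cells stably expressing EP4 fused to ProLink and β-arrestin 2 fused to EA. Recruitment read as β-gal luminescence after 1 h reagent at room temperature, as percent of DMSO control.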

Usually IC50 stands for the midpoint of a concentration-inhibition curve.

PTGER2 (EP2), sequence (P43116 whole entry): as above
PTRGER4 (EP4), sequence (P35408 whole entry, looked up, the tested form may be a part): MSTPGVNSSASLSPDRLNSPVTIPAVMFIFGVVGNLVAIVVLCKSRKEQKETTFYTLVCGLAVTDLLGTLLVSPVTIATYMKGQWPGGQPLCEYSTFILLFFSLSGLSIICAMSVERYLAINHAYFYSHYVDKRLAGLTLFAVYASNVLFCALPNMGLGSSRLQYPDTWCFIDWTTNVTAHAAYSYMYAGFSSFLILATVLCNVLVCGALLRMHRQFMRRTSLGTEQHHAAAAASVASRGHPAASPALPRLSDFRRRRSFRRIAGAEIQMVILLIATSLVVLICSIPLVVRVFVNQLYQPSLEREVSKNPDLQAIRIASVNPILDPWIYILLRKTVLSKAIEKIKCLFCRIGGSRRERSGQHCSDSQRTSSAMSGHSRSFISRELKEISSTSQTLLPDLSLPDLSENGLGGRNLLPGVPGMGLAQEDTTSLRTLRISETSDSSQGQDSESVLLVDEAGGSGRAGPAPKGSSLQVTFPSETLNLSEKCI
EP4, sequence (P35408 whole entry): as the sequence (P35408 whole entry, looked up, the tested form may be a part) above

Consider `COc1cc(-c2cc(NCCn3c(C)cc4ccccc43)ncn2)ccc1-c1nnn[nH]1` [Example 746, {6-[3-Methoxy-4-(1H-tetrazol-5-yl)-phenyl]-pyrimidin-4-yl}-[2-(2-methyl-indol-1-yl)-ethyl]-amine], for which the IC50 on EP4 came out at 0.869 µM; on EP2, 0.01 µM.
Take `COc1cc(-c2cc(NCCn3c(C)cc4c(F)ccc(F)c43)ncn2)ccc1-c1nnn[nH]1` [Example 747, [2-(4,7-Difluoro-2-methyl-indol-1-yl)-ethyl]-{6-[3-methoxy-4-(1H-tetrazol-5-yl)-phenyl]-pyrimidin-4-yl}-amine]: the IC50 against EP4 came out at 0.318 µM; against EP2 it was 0.003 µM.
For `COc1cc(-c2cc(NCCn3c(C)cc4c(C)ccc(F)c43)ncn2)ccc1-c1nnn[nH]1` [Example 748, [2-(7-Fluoro-2,4-dimethyl-indol-1-yl)-ethyl]-{6-[3-methoxy-4-(1H-tetrazol-5-yl)-phenyl]-pyrimidin-4-yl}-amine], the IC50 against EP4 worked out at 0.17 µM; at EP2, 0.07 µM.
For `COc1cc(-c2ccc(-c3cc(NCCn4c(C)cc5c(OC)cc(F)cc54)ncn3)cc2)ncn1` [Example 749, [2-(6-Fluoro-4-methoxy-2-methyl-indol-1-yl)-ethyl]-{6-[4-(6-methoxy-pyrimidin-4-yl)-phenyl]-pyrimidin-4-yl}-amine], in that order: 0.425 µM and 0.081 µM.
For `COc1cc(F)cc2c1cc(C)n2CCNc1cc(-c2ccc(-c3cnccn3)cc2)ncn1` [Example 750, [2-(6-Fluoro-4-methoxy-2-methyl-indol-1-yl)-ethyl]-[6-(4-pyrazin-2-yl-phenyl)-pyrimidin-4-yl]-amine] the same measures were 0.091 µM and 0.016 µM.
For `COc1cc(F)cc2c1cc(C)n2CCNc1cc(-c2ccc(-c3nccs3)cc2)ncn1` [Example 751, [2-(6-Fluoro-4-methoxy-2-methyl-indol-1-yl)-ethyl]-[6-(4-thiazol-2-yl-phenyl)-pyrimidin-4-yl]-amine] the same measures were 0.105 µM and 0.008 µM.
`COc1cc(F)cc2c1cc(C)n2CCNc1cc(-c2ccc(-c3ncc(C)n3C)cc2)ncn1` [Example 752, {6-[4-(1,5-Dimethyl-1H-imidazol-2-yl)-phenyl]-pyrimidin-4-yl}-[2-(6-fluoro-4-methoxy-2-methyl-indol-1-yl)-ethyl]-amine]: the IC50 is 0.633 µM on EP4 and 0.085 µM at EP2.
Regarding `CCOc1cc(-c2cc(NCCn3c(C)cc4c(OC)ccc(Cl)c43)ncn2)cc(C)c1C(=O)O` [compound 365, 4-{6-[2-(7-Chloro-4-methoxy-2-methyl-indol-1-yl)-ethylamino]-pyrimidin-4-yl}-2-ethoxy-6-methyl-benzoic acid], the figures for the IC50 on PTGER2 (EP2) and against PTRGER4 (EP4) were 0.025 µM and 0.409 µM, respectively.
With `CCOc1cc(-c2cc(NCCn3c(C)cc4c(OC)ccc(F)c43)ncn2)cc(C)c1C(=O)O` [compound 366, 2-Ethoxy-4-{6-[2-(7-fluoro-4-methoxy-2-methyl-indol-1-yl)-ethylamino]-pyrimidin-4-yl}-6-methyl-benzoic acid], the IC50 is 0.022 µM against PTGER2 (EP2) and 0.262 µM against PTRGER4 (EP4).
For `Cc1cc2c(F)ccc(F)c2n1CCNc1cc(-c2ccc(C(=O)O)c(CCC(C)C)c2)ncn1` [compound 367, 4-{6-[2-(4,7-Difluoro-2-methyl-indol-1-yl)-ethylamino]-pyrimidin-4-yl}-2-(3-methyl-butyl)-benzoic acid], in that order: 0.014 µM and 0.961 µM.
For `Cc1ccc(Cl)c2c1cc(C)n2CCNc1cc(-c2ccc(C(=O)O)c(SCC(C)C)c2)ncn1` [compound 368], in that order: 0.063 µM and 0.36 µM.
Turning to `Cc1ccc(F)c2c1cc(C)n2CCNc1cc(-c2ccc(C(=O)O)c(CCC(C)C)c2)ncn1` [compound 369], the results for the IC50 at PTGER2 (EP2) and at PTRGER4 (EP4) were 0.087 µM and 0.238 µM, respectively.
For `Cc1cc2c(Cl)ccc(Cl)c2n1CCNc1cc(-c2ccc(C(=O)O)c(SCC(C)C)c2)ncn1` [compound 370, 4-{6-[2-(4,7-Dichloro-2-methyl-indol-1-yl)-ethylamino]-pyrimidin-4-yl}-2-isobutylsulfanyl-benzoic acid], in that order: 0.035 µM and 0.992 µM.
For the molecule `CCCSc1cc(-c2cc(NCCn3c(C)cc4c(C)c(F)cc(Cl)c43)ncn2)ccc1C(=O)O` [compound 371], the IC50 against PTGER2 (EP2) turned out to be 0.07 µM; on PTRGER4 (EP4) it was 0.875 µM.
For `CCCc1cc(-c2cc(NCCn3c(C)cc4cc(OC)cc(F)c43)ncn2)cc(Cl)c1C(=O)O` [compound 372] the same measures were 0.26 µM and 0.381 µM.
Regarding `CCCc1cc(-c2cc(NCCn3c(C)cc4c(OC)c(F)cc(F)c43)ncn2)ccc1C(=O)O` [compound 373], the IC50 was found to be 0.079 µM at PTGER2 (EP2) and 0.183 µM against PTRGER4 (EP4).
Regarding `CCNC(=O)Nc1ccc(-c2cc(NCCn3c(C)cc4c(C)ccc(F)c43)ncn2)cc1OC` [compound 374], the IC50 against PTGER2 (EP2) was 0.053 µM; on PTRGER4 (EP4), 0.067 µM.
For `CCNC(=O)Nc1ccc(-c2cc(NCCn3c(C)cc4c(OC)cccc43)ncn2)cc1OC` [compound 375, 1-Ethyl-3-(2-methoxy-4-{6-[2-(4-methoxy-2-methyl-indol-1-yl)-ethylamino]-pyrimidin-4-yl}-phenyl)-urea] the same measures were 0.02 µM and 0.057 µM.
For `COc1ccc(F)c2c1cc(C)n2CCNc1cc(-c2ccc3nccnc3c2)ncn1` [compound 376], in that order: 0.05 µM and 0.184 µM.
For `CCOc1cc(-c2cc(NCCn3c(C)cc4c(OC)ccc(F)c43)ncn2)ccc1S(N)(=O)=O` [compound 377], in that order: 0.051 µM and 0.697 µM.
As to `Cc1ccc(F)c2c1cc(C)n2CCNc1cc(-c2ccc(C3(C(=O)O)CC3)c(F)c2)ncn1` [compound 378], the values for the IC50 on PTGER2 (EP2) and against PTRGER4 (EP4) were 0.34 µM and 0.449 µM, respectively.
For `Cc1ccc(F)c2c1cc(C)n2CCNc1cc(-c2ccc(S(N)(=O)=O)c(C(F)(F)F)c2)ncn1` [compound 379], the IC50 against PTGER2 (EP2) came to 0.063 µM; against PTRGER4 (EP4), 0.354 µM.
On to `COc1cccc2c1cc(C)n2CCNc1cc(-c2ccc(S(N)(=O)=O)c(C(F)(F)F)c2)ncn1` [compound 380], for which the IC50 was found to be 0.058 µM against PTGER2 (EP2) and 0.677 µM at PTRGER4 (EP4).
For `CCNc1cc(-c2cc(NCCn3c(C)cc4c(OC)ccc(F)c43)ncn2)cc(Cl)c1C(=O)O` [compound 381, 2-Chloro-6-ethylamino-4-{6-[2-(7-fluoro-4-methoxy-2-methyl-indol-1-yl)-ethylamino]-pyrimidin-4-yl}-benzoic acid], the IC50 stood at 0.003 µM against PTGER2 (EP2) and 0.084 µM against PTRGER4 (EP4).
For the molecule `COc1cc(F)cc2c1cc(C)n2CCNc1cc(-c2ccc(C(=O)O)c(C3CC3)c2)ncn1` [compound 382], the IC50 against PTGER2 (EP2) turned out to be 0.027 µM; at PTRGER4 (EP4), 0.359 µM.
Take `COc1ccc(F)c2c1cc(C)n2CCNc1cc(-c2ccc3ccncc3c2)ncn1` [compound 383]: the IC50 was determined as 0.017 µM at PTGER2 (EP2) and 0.147 µM on PTRGER4 (EP4).
For the molecule `COc1ccc(F)c2c1cc(C)n2CCNc1cc(-c2ccc3ncccc3c2)ncn1` [compound 384], the values for the IC50 against PTGER2 (EP2) and at PTRGER4 (EP4) were 0.013 µM and 0.06 µM, respectively.
For `COc1ccc(F)c2c1cc(C)n2CCNc1cc(-c2ccc(C3(N)CC3)cc2)ncn1` [compound 385], the IC50 at PTGER2 (EP2) amounted to 0.183 µM; on PTRGER4 (EP4), 0.468 µM.
Turning to `COc1cccc2c1cc(C)n2CCNc1cc(-c2ccc(C3(C(=O)O)CC3)c(F)c2)ncn1` [compound 386], the IC50 on PTGER2 (EP2) is 0.04 µM; at PTRGER4 (EP4) it was 0.559 µM.
For `CNc1nnc(-c2ccc(-c3cc(NCCn4c(C)cc5ccccc54)ncn3)cc2)s1` [compound 387], in that order: 0.002 µM and 0.556 µM.
For `COc1ccc(Cl)c2c1cc(C)n2CCNc1cc(-c2ccc3c(C(=O)O)n[nH]c3c2)ncn1` [compound 388] the same measures were 0.034 µM and 0.963 µM.
With `COc1ccc(F)c2c1cc(C)n2CCNc1cc(-c2ccc3c(C(=O)O)n[nH]c3c2)ncn1` [compound 389], the values for the IC50 at PTGER2 (EP2) and at PTRGER4 (EP4) were 0.026 µM and 0.734 µM, respectively.
For `Cc1cc(F)cc2c1cc(C)n2CCNc1cc(-c2cc(Cl)c(C(=O)O)c(Cl)c2)ncn1` [compound 390], in that order: 0.038 µM and 0.146 µM.
For `CCOc1cc(-c2cc(NCCn3c(C#N)cc4c(OC)cc(F)cc43)ncn2)sc1C(=O)O` [compound 391] the same measures were 0.002 µM and 0.003 µM.
For `CCNc1cc(-c2cc(NCCn3c(C)cc4c(C)ccc(F)c43)ncn2)cc(F)c1C(=O)O` [compound 392], in that order: 0.007 µM and 0.097 µM.
For `CCCc1cc(-c2cc(NCCn3c(C)cc4c(C#N)ccc(F)c43)ncn2)ccc1C(=O)O` [compound 393], the half-inhibitory concentration (IC50) against PTGER2 (EP2) amounted to 0.009 µM; at PTRGER4 (EP4), 0.745 µM.
For the molecule `COc1ccc(F)c2c1cc(C)n2CCNc1cc(-c2ccc(C(=O)O)c([N+](=O)[O-])c2)ncn1` [compound 394], the IC50 stood at 0.015 µM against PTGER2 (EP2) and 0.296 µM against PTRGER4 (EP4).
`CCOc1cc(-c2cc(NCCn3c(C#N)cc4c(C)cc(F)cc43)ncn2)ccc1C(=O)O` [compound 395]: the results for the IC50 against PTGER2 (EP2) and at PTRGER4 (EP4) were 0.024 µM and 0.137 µM, respectively.
